Ki data for 17 molecules are collected here from patent US6635653B2 (priority 2001, dated 2003).

Values joined by “and” are separate entries in the source; they are usually repeats but may differ in a detail not shown here. Equal values may be shown once. Read-outs that look alike come from different tables or passages of the source.

Experiment [1] addresses Mu opioid receptor (Homo sapiens, UniProt P35372). The experiment is described as follows: Affinity at the μ receptor ([35S]GTPγS binding assay, membranes). Particulars: read-out: Mu Receptor Affinity calc Ki. How it is done: Affinity at the μ receptor for compounds was obtained according to the following assay:
Mu opioid receptor membrane solution was prepared by sequentially adding final concentrations of 0.075 μg/μl of the desired membrane protein, 10 μg/ml saponin, 3 μM GDP and 0.20 nM [^35S]GTPγS to binding buffer (100 mM NaCl, 10 mM MgCl2, 20 mM HEPES, pH 7.4) on ice. The prepared membrane solution (190 μl/well) was transferred to 96-shallow well polypropylene plates containing 10 μl of 20×concentrated stock solutions of agonist prepared in DMSO. Plates were incubated for 30 min at room temperature with shaking. Reactions were terminated by rapid filtration onto 96-well Unifilter GF/B filter plates (Packard) using a 96-well tissue harvester (Brandel) and followed by three filtration washes with 200 μl ice-cold binding buffer (10 mM NaH2PO4, 10 mM Na2HPO4, pH 7.4). Filter plates were subsequently dried at 50° C. for 2-3 hours. Fifty μl/well scintillation cocktail (MicroScint20, Packard) was added and plates were counted in a Packard Top-Count for 1 min/well.
Data were analyzed using the curve fitting functions in GraphPad PRISM™, v.3.0 and the results for several compounds are set forth in table 2 below: […]

For experiment [2], the target named is T1, human opioid receptor-like receptor (ORL-1) (Homo sapiens, UniProt P41146).
T1 construct: host or cells: HEK-293
T1 sequence (P41146 whole entry): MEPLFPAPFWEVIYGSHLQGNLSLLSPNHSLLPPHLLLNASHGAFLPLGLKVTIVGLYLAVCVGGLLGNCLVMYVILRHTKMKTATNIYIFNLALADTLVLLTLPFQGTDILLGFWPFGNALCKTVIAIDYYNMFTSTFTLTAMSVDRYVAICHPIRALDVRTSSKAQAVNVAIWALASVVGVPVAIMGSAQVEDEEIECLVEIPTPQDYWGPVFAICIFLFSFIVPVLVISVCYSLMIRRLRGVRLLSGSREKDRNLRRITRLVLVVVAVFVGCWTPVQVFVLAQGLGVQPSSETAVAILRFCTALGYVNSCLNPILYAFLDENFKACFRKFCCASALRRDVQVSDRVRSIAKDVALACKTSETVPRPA
Description: biochemical. The format is binding.

Chain of Mu opioid receptor (P35372 whole entry, species assumed): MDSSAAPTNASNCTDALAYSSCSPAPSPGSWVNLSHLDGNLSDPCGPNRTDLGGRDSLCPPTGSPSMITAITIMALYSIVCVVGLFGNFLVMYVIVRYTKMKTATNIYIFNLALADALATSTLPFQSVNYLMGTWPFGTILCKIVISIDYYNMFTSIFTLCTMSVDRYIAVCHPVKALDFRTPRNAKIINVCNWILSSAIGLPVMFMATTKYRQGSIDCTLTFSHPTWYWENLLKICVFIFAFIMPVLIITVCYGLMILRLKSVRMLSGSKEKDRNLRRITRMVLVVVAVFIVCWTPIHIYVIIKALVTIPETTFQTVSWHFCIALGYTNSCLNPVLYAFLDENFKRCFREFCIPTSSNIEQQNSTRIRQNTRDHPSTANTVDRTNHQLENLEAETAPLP

As a reminder, the Ki is a measure of affinity in units of concentration, obtained from inhibition or displacement. Consider `O=C1NNC(c2ccccc2)C12CCN(C1CCc3ccccc3C1)CC2` (centres unmarked) [8-(1,2,3,4-tetrahydro-2-naphthyl)-1-phenyl-2,3,8-triazospiro[4.5]decan-4-one], for which the Ki in experiment [1] was 0.115 µM. With `O=C1NN=C(c2ccccc2)C12CCN(CCC(c1ccccc1)c1ccccc1)CC2` [8-(3,3-Bis(phenyl)propyl)-4-phenyl-2,3,8-triazospiro[4.5]dec-3-en-1-one], the inhibitory constant (Ki) in experiment [2] (Nociceptin Affinity calc Ki) is 0.075 µM. The same measure, in the same setting: the result for `CCCC1CCC(N2CCC3(CC2)C(=O)NN=C3c2ccccc2)CC1` (centres unmarked) [8-(4-propylcyclohexyl)-4-phenyl-2,3,8-triazospiro[4.5]dec-3-en-1-one] reads 0.0297 µM. On to `CC(C)CCC(C)N1CCC2(CC1)C(=O)NN=C2c1ccccc1` (centres unmarked) [8-(5-methylhex-2-yl)-4-phenyl-2,3,8-triazospiro[4.5]dec-3-en-1-one], for which the Ki in experiment [2] (Nociceptin Affinity calc Ki) was 0.0115 µM. On the same count and under the same terms, under `O=C1NN=C(c2ccccc2)C12CCN(C1c3ccccc3CCc3ccccc31)CC2` [8-(10,11-Dihydro-5H-dibenzo[a,d]-cyclohepten-5-yl)-4-phenyl-2,3,8-triazospiro[4.5]dec-3-en-1-one] stands 0.282 µM.

Consider `O=C1NNC(c2ccccc2)C12CCN(Cc1ccccc1)CC2` (centres unmarked) [8-(benzyl)-1-phenyl-2,3,8-triazospiro[4.5]decan-4-one], for which the inhibitory constant (Ki) in experiment [1] was 0.056 µM. As for `O=C1NN=C(c2ccccc2)C12CCN(Cc1ccccc1)CC2` [8-(benzyl)-4-phenyl-2,3,8-triazospiro[4.5]dec-3-en-1-one], the Ki in experiment [2] (Nociceptin Affinity calc Ki) was 0.293 µM. On to `O=C1NNC(c2ccccc2)C12CCN(CC1CCCCCCC1)CC2` (centres unmarked) [8-(cyclooctylmethyl)-1-phenyl-2,3,8-triazospiro[4.5]decan-4-one], for which, in experiment [1], the Ki was 0.191 µM. For `O=C1NN=C(c2ccccc2)C12CCN(CC1CCCCCCC1)CC2` [8-(cyclooctylmethyl)-4-phenyl-2,3,8-triazospiro[4.5]dec-3-en-1-one], the Ki in experiment [2] (Nociceptin Affinity calc Ki) is 0.0081 µM and 0.061 µM. In the case of `O=C1NN=C(c2ccccc2)C12CCN(C1CCC3CCCCC3C1)CC2` (centres unmarked) [8-(decahydro-2-naphthyl)-4-phenyl-2,3,8-triazospiro[4.5]dec-3-en-1-one], the Ki in experiment [2] (Nociceptin Affinity calc Ki) was 0.0011 µM. On the same count and under the same terms, the result for `O=C1NN=C(c2ccccc2)C12CCN(Cc1ccc(OCc3ccccc3)cc1)CC2` [8-(p-benzyloxybenzyl)-4-phenyl-2,3,8-triazospiro[4.5]dec-3-en-1-one] reads 0.138 µM; that for `O=C1NN=C(c2ccccc2)C12CCN(Cc1ccc(-c3ccccc3)cc1)CC2` [8-(p-phenylbenzyl)-4-phenyl-2,3,8-triazospiro[4.5]dec-3-en-1-one], 7.17 µM. Turning to `O=C1NN=C(c2ccccc2)C12CCN(CCCC(c1ccc(F)cc1)c1ccc(F)cc1)CC2` [8-[4,4-Bis(4-fluorophenyl)butyl]-4-phenyl-2,3,8-triazospiro[4.5]dec-3-en-1-one], in experiment [2] (Nociceptin Affinity calc Ki), the Ki is 2.59 µM. With `CC(C)C1CCC(N2CCC3(CC2)C(=O)NN=C3c2ccccc2)CC1` (centres unmarked) [8-[4-(2-propyl)-cyclohexyl]-4-phenyl-2,3,8-triazospiro[4.5]dec-3-en-1-one], the Ki in experiment [2] (Nociceptin Affinity calc Ki) was 0.0015 µM.

As for `O=C1NNC(c2ccccc2)C12CCN(Cc1ccc3ccccc3c1)CC2` (centres unmarked) [8-[(naphth-2-yl-methyl)]-1-phenyl-2,3,8-triazospiro[4.5]decan-4-one], the Ki in experiment [1] is 0.084 µM. As for `O=C1NN=C(c2ccccc2)C12CCN(Cc1ccc3ccccc3c1)CC2` [8-[(naphth-2-yl-methyl)]-4-phenyl-2,3,8-triazospiro[4.5]dec-3-en-1-one], the Ki in experiment [2] (Nociceptin Affinity calc Ki) is 0.402 µM. As to `O=C1NN=C(c2ccccc2)C12CCN(C1CC3CCC1C3)CC2` (centres unmarked) [8-norbornyl-4-phenyl-2,3,8-triazospiro[4.5]dec-3-en-1-one], in experiment [2] (read-out: Nociceptin Affinity calc Ki), the Ki is 0.897 µM.
